These results are taken from ChEMBL document CHEMBL1154554, “Ganomycins A and B, new antimicrobial farnesyl hydroquinones from the basidiomycete Ganoderma pfeifferi” (2000).

The test system of assay [1] is Staphylococcus aureus. The experiment in a line: Antibacterial activity against Staphylococcus aureus ATCC 6538 at 100 ug/disk after 18 hrs by agar diffusion method. It counts as functional. As to conditions: for zone of inhibition at 100 µg/disc: ATCC 6538, 18 h, read-out: IZ. (In agar diffusion tests the substance spreads into inoculated agar from a disc or well.)

Assay [2] relates to Staphylococcus aureus. Description: Antibacterial activity against Staphylococcus aureus ATCC 25923 at 100 ug/disk after 18 hrs by agar diffusion method. The following applies: for zone of inhibition at 100 µg/disc: ATCC 25923, 18 h, read-out: IZ. Type of assay: functional.
Assay [3] relates to Staphylococcus aureus. The experiment in a line: Antibacterial activity against Staphylococcus aureus ATCC 29213 at 100 ug/disk after 18 hrs by agar diffusion method. As to conditions: for zone of inhibition at 100 µg/disc: ATCC 29213, 18 h, read-out: IZ. Type of assay: functional.
The test system of assay [4] is Staphylococcus aureus. The experiment in a line: Antibacterial activity against Staphylococcus aureus SG511 at 100 ug/disk after 18 hrs by agar diffusion method. Type of assay: functional. The following applies: for zone of inhibition at 100 µg/disc: read-out: IZ.
The test system of assay [5] is Bacillus subtilis. Description: Antibacterial activity against Bacillus subtilis SBUG 14 at 100 ug/disk after 18 hrs by agar diffusion method. Type of assay: functional. The following applies: for zone of inhibition at 100 µg/disc: read-out: IZ.
Assay [6] relates to Micrococcus luteus. Description: Antibacterial activity against Micrococcus flavus SBUG 16 at 100 ug/disk after 48 hrs by agar diffusion method. Type of assay: functional. The following applies: for zone of inhibition at 100 µg/disc: read-out: IZ.
For assay [7], the system named is Pseudomonas aeruginosa. The experiment in a line: Antibacterial activity against Pseudomonas aeruginosa ATCC 15442 at 100 ug/disk after 18 hrs by agar diffusion method. It counts as functional, organism-based.
The test system of assay [8] is Serratia marcescens. Description: Antibacterial activity against sSerratia marcescens SBUG 9 at 100 ug/disk after 18 hrs by agar diffusion method. It counts as functional. The following applies: for zone of inhibition at 100 µg/disc: read-out: IZ.
Assay [9] relates to Proteus mirabilis. Description: Antibacterial activity against Proteus mirabilis SBUG 47 at 100 ug/disk after 18 hrs by agar diffusion method. It counts as functional. As to conditions: for zone of inhibition at 100 µg/disc: read-out: IZ.
In assay [10] the test system is Micrococcus luteus. The experiment in a line: Antibacterial activity against Micrococcus flavus SBUG 16 after 18 hrs by broth microdilution method. Type of assay: functional. (Broth dilution looks for growth in wells or tubes with falling amounts of substance.)
The subject of assay [11] is Staphylococcus aureus. The experiment in a line: Antibacterial activity against Staphylococcus aureus after 18 hrs by broth microdilution method. It counts as functional.
Assay [12] relates to Candida albicans. The experiment in a line: […] activity against Candida albicans at 100 ug/disk after 18 hrs by agar diffusion method. It counts as functional, organism-based.
Assay [13] concerns Candida maltosa. Description: […] activity against Candida maltosa 100 ug/disk after 18 hrs by agar diffusion method. It counts as functional, organism-based.
For assay [14], the system named is Escherichia coli. The experiment in a line: Antibacterial activity against sEscherichia coli SBUG 13 at 100 ug/disk after 18 hrs by agar diffusion method. Type of assay: functional. The following applies: for zone of inhibition at 100 µg/disc: read-out: IZ.

Values after ≈ are worked out from the molar mass of the structure shown. Active and inactive are the calls of the source. The rule behind the calls is not given here.

The term MIC denotes the least concentration at which growth counts as inhibited. A low value points to inhibition by little substance. Consider `C/C(=C\CC/C(C)=C/CC/C(=C/Cc1cc(O)ccc1O)C(=O)O)CO` [GANOMYCIN A], for which the zone of inhibition at 100 µg/disc came out at 19 mm in [1]; 15 mm in [2]; 16 mm in assay [3]; 24 mm in assay [4]; 16 mm in assay [5]; 25 mm in [6]. The values for the zone of inhibition at 100 µg/disc in assay [8], in assay [9] and in assay [14] were 15 mm, 15 mm and 4 mm, respectively. For the same molecule, the result in assay [7], in assay [12] and in [13] was inactive. The results for the minimal inhibitory concentration (MIC) in [10] and in assay [11] were 2.5 µg/mL (≈ 6.94 µM) and 25 µg/mL (≈ 69.4 µM), respectively.
Turning to `CC1(C)S[C@@H]2[C@H](NC(=O)[C@H](N)c3ccccc3)C(=O)N2[C@H]1C(=O)O` [AMPICILLIN], the values for the MIC in assay [10] and in [11] were 0.25 µg/mL (≈ 0.715 µM) and 0.05 µg/mL (≈ 0.143 µM), respectively.
`COC1=C(OC)C(=O)C(C/C=C(\C)CC/C=C(\C)CC/C=C(\C)CC/C=C(\C)CC/C=C(\C)CC/C=C(\C)CC/C=C(\C)CC/C=C(\C)CC/C=C(\C)CCC=C(C)C)=C(C)C1=O`: the outcome in assay [1], in assay [2], in assay [3], in assay [4], in [5] and in assay [6] was inactive. Besides, the outcome in assay [7], in assay [8], in assay [9] and in assay [14] was inactive.
Regarding `CC(C)=CCC/C(C)=C/CC/C(=C/Cc1cc(O)ccc1O)C(=O)O` [GANOMYCIN B], the zone of inhibition at 100 µg/disc was 20 mm in [1]; 17 mm in assay [2]; 18 mm in assay [3]; 24 mm in [4]; 15 mm in assay [5]; 26 mm in [6]. The figures for the zone of inhibition at 100 µg/disc in assay [8], in assay [9] and in [14] were 16 mm, 15 mm and 5 mm, respectively. Besides, the outcome in [7], in [12] and in assay [13] was inactive. Moreover, the results for the MIC in [10] and in assay [11] were 2.5 µg/mL (≈ 7.26 µM) and 25 µg/mL (≈ 72.6 µM), respectively.
